Assay results taken from ChEMBL document CHEMBL3991601, “The target landscape of clinical kinase drugs” (Science, 2017).
Active and inactive are the calls of the source. Rule as the data show it, for most assays here: actives have a measured Kd and inactives only a lower limit.

How the values were obtained:
[1] = molecular target: Platelet-derived growth factor receptor beta (Homo sapiens, UniProt P09619)
[2] = molecular target: Dual specificity tyrosine-phosphorylation-regulated kinase 1A (Homo sapiens, UniProt Q13627)
[3] = molecular target: T1, Very long-chain specific acyl-CoA dehydrogenase, mitochondrial (Homo sapiens, UniProt P49748)
T1 sequence (P49748 whole entry): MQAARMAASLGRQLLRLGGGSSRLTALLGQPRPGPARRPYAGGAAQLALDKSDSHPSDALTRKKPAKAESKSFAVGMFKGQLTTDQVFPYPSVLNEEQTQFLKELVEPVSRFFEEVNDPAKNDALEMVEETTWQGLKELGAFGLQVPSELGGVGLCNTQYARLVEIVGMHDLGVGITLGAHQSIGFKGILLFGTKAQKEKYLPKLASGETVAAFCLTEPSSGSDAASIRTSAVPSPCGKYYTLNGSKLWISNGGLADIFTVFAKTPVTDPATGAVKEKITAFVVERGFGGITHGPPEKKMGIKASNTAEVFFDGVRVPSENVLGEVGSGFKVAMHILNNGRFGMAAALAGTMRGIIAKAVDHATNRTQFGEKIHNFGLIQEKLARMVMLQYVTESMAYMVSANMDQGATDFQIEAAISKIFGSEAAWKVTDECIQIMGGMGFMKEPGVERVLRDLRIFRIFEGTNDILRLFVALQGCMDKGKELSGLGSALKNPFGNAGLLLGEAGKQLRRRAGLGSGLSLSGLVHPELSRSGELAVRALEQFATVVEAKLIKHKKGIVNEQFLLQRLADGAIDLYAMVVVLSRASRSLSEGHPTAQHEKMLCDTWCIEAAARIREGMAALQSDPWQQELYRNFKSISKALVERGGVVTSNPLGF

[4] = molecular target: T2, Serine/threonine-protein kinase PLK4 (Homo sapiens, UniProt O00444)
T2 sequence (O00444 whole entry): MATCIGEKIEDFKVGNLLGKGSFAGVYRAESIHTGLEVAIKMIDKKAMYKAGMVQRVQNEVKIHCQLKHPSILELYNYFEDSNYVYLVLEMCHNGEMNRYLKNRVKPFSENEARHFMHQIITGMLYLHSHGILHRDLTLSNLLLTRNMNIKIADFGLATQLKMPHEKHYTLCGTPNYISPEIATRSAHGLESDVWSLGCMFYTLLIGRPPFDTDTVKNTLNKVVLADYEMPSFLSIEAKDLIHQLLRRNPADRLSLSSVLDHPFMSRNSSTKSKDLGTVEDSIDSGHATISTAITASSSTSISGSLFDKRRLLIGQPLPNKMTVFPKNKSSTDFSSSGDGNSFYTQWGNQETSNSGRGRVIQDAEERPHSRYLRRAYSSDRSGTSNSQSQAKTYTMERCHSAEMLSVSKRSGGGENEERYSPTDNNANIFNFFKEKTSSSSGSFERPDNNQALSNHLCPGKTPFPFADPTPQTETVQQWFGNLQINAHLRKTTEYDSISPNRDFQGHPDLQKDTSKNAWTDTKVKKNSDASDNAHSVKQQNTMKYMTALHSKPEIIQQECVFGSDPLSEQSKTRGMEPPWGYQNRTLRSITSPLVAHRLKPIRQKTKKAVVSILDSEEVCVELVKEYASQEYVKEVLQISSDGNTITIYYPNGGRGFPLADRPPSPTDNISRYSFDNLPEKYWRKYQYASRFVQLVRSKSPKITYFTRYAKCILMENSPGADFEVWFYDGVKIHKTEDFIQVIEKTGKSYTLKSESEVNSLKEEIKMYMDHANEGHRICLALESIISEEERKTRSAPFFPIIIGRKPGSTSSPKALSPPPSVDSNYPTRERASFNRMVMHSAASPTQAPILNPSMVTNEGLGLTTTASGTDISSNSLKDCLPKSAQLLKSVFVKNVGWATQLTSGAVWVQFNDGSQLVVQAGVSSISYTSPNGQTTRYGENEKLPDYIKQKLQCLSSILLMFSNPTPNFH

[5] = molecular target: Serine/threonine-protein kinase SIK3 (Homo sapiens, UniProt Q9Y2K2)
[6] = molecular target: Serine/threonine-protein kinase 10 (Homo sapiens, UniProt O94804)
[7] = molecular target: Serine/threonine-protein kinase N2 (Homo sapiens, UniProt Q16513)
[8] = molecular target: T3, Interleukin-1 receptor-associated kinase 4 (Homo sapiens, UniProt Q9NWZ3)
T3 sequence (Q9NWZ3 whole entry): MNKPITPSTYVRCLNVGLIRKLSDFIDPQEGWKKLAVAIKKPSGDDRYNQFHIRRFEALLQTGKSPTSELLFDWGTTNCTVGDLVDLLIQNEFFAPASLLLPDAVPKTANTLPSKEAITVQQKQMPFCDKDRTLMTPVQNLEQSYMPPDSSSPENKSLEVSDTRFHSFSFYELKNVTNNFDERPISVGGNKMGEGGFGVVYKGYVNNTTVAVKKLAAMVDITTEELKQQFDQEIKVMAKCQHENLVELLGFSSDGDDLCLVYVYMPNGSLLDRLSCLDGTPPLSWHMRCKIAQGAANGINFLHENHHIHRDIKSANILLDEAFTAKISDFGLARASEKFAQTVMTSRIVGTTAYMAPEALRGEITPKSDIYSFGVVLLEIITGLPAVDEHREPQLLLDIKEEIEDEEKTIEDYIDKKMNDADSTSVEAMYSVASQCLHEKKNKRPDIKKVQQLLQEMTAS

[9] = molecular target: Eukaryotic translation initiation factor 2-alpha kinase 1 (Homo sapiens, UniProt Q9BQI3)
[10] = molecular target: T4, Serine/threonine-protein kinase Chk1 (Homo sapiens, UniProt O14757)
T4 sequence (O14757 whole entry): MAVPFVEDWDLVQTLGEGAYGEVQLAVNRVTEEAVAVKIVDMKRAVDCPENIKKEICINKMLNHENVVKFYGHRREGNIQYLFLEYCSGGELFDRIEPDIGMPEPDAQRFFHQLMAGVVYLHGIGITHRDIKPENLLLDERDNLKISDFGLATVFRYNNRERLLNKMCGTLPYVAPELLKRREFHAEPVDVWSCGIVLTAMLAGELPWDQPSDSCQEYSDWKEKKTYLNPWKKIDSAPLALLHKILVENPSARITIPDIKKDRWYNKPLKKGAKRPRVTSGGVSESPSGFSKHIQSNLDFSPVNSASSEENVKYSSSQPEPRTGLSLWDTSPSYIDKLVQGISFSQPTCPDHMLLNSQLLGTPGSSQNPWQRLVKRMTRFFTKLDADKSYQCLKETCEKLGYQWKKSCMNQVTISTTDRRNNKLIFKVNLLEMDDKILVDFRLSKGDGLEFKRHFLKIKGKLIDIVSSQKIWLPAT

[11] = molecular target: Cyclin-dependent kinase 6 (Homo sapiens, UniProt Q00534)
Also: in the data inactive means no Kd found up to 30 µM.

Serine/threonine-protein kinase SIK3, sequence (Q9Y2K2 whole entry): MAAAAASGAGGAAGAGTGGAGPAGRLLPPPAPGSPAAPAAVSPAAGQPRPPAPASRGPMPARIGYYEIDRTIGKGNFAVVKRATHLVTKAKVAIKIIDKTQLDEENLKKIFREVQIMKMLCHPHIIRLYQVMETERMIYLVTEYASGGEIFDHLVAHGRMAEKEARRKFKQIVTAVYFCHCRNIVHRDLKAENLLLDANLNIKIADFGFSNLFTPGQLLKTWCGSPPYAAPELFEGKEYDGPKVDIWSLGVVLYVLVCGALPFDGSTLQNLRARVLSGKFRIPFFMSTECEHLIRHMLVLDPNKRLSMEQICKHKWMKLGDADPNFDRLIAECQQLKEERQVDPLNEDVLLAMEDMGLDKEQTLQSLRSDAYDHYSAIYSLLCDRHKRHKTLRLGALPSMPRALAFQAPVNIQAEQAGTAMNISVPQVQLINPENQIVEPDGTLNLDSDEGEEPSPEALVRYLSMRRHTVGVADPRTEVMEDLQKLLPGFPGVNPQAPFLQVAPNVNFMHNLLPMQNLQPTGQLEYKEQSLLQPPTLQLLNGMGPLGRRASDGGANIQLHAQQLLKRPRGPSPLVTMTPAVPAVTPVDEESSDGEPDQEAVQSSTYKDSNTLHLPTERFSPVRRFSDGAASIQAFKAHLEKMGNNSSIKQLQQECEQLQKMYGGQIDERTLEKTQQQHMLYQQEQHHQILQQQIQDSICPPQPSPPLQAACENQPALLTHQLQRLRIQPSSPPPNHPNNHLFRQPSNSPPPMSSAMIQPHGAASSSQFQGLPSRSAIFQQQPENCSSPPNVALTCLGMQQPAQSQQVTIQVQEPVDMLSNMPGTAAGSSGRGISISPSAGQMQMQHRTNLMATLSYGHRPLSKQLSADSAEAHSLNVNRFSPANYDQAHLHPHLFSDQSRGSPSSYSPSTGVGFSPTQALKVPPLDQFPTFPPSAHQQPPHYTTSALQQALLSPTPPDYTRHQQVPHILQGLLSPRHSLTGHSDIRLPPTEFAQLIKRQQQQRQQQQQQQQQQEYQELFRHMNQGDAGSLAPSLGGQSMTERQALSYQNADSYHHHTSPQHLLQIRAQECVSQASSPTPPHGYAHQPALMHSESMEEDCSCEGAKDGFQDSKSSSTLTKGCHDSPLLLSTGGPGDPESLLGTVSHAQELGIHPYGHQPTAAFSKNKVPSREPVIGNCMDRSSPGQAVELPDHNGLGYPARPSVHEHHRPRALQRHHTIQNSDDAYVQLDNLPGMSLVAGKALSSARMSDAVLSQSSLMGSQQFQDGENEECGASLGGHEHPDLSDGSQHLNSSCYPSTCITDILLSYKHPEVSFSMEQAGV
Serine/threonine-protein kinase 10, sequence (O94804 whole entry): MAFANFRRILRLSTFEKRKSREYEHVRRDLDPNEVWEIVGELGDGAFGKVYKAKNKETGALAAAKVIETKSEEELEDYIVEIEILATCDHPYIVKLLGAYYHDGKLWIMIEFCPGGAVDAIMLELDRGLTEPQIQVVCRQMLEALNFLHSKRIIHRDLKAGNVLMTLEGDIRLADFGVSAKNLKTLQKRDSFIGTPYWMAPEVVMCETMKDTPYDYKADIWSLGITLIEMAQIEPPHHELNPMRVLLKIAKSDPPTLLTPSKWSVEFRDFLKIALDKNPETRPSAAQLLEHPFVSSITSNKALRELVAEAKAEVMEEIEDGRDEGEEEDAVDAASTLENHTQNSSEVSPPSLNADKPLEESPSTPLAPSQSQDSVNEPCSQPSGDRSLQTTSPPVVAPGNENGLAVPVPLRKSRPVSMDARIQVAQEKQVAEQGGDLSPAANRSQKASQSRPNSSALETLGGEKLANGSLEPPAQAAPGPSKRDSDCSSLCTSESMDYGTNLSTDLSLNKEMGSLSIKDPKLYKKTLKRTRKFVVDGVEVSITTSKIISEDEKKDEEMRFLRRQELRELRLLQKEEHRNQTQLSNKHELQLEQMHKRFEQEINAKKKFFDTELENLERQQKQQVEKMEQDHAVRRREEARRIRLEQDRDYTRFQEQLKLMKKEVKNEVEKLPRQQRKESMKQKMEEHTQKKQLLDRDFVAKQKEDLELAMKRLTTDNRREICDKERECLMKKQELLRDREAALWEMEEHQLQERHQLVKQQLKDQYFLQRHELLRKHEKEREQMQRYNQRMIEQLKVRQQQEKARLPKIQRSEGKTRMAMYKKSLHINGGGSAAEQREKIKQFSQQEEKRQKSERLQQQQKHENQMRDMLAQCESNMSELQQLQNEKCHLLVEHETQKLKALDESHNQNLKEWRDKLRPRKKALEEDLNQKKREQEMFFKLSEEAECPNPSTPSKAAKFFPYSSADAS
Platelet-derived growth factor receptor beta, sequence (P09619 whole entry): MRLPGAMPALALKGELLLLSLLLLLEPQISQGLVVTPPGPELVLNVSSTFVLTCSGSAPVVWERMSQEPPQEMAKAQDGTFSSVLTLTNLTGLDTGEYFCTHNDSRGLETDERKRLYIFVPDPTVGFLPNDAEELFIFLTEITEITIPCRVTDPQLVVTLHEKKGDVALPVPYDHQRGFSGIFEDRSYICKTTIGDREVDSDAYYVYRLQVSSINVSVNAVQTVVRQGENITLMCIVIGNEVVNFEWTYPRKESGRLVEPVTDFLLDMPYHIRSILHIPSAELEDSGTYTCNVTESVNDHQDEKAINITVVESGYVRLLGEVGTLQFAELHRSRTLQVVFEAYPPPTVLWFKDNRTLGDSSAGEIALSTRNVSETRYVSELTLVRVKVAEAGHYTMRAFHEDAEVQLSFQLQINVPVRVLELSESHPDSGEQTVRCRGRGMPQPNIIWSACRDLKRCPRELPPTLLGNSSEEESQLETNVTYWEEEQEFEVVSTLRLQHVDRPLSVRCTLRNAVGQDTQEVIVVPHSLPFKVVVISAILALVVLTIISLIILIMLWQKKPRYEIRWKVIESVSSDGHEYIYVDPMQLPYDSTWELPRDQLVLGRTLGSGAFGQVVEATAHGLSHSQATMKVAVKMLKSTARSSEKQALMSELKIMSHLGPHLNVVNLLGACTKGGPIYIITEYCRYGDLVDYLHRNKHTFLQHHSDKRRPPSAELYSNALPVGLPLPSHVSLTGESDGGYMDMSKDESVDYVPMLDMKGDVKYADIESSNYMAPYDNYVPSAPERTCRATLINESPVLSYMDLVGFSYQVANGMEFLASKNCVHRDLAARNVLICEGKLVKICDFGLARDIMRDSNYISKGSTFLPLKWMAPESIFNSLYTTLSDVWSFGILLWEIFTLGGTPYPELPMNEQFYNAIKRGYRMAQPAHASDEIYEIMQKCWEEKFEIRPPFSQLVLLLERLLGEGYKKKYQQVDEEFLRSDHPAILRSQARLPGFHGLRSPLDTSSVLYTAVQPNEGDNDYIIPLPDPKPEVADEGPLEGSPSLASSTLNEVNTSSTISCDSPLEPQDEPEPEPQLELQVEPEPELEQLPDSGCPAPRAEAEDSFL
Eukaryotic translation initiation factor 2-alpha kinase 1, sequence (Q9BQI3 whole entry): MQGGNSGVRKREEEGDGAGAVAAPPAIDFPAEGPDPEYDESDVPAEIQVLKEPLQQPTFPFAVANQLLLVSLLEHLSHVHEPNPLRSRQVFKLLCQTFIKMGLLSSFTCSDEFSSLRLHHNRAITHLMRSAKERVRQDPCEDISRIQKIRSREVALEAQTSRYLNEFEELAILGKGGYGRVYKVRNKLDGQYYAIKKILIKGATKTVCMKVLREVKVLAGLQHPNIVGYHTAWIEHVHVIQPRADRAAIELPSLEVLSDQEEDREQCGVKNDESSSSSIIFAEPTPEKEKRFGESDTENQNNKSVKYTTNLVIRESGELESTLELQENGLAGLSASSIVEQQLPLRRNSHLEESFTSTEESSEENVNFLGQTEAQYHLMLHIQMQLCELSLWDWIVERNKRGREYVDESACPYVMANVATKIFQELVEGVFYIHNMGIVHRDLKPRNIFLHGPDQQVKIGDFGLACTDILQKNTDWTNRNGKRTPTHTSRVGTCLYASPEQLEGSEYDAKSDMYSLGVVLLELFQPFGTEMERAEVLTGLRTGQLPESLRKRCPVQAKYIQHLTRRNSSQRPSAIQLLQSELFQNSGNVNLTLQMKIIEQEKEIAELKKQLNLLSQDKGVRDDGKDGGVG
Serine/threonine-protein kinase N2, sequence (Q16513 whole entry): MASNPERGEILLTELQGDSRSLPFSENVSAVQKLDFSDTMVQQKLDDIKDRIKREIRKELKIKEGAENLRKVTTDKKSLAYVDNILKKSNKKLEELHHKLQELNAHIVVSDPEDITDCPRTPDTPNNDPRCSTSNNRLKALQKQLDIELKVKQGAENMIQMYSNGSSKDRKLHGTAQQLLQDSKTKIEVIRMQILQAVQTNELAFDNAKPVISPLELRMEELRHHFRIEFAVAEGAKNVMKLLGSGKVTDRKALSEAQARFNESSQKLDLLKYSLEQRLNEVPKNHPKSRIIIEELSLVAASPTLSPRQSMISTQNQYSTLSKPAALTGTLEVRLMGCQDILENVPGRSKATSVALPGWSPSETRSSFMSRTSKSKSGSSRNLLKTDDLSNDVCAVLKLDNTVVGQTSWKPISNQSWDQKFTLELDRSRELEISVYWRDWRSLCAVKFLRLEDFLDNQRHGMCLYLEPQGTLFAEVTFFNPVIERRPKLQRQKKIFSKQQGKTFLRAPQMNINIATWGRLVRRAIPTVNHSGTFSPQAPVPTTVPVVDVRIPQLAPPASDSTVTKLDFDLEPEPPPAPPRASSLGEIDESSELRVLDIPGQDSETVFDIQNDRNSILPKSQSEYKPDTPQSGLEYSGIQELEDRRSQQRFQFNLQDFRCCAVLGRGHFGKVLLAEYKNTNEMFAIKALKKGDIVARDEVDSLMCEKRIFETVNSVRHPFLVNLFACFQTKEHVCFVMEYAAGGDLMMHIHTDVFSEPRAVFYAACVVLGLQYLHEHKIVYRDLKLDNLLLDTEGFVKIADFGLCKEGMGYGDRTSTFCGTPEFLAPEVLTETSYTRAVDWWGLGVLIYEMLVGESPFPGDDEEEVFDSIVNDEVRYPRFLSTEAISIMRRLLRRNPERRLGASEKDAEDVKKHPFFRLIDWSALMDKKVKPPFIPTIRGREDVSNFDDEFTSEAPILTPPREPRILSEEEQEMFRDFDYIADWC

Q: With `C[C@@H](NC(=O)c1ncnc(N)c1Cl)c1ncc(C(=O)Nc2cc(C(F)(F)F)c(Cl)cn2)s1` [TOVORAFENIB] as the compound, how does the Kd [1] read?
A: The Kd was 11.1 µM (active).

Q: And the Kd [2]?
A: The Kd was 3.22 µM (active).

Q: What about the Kd [3] of the same compound?
A: The Kd was > 30 µM (inactive).

Q: What about the Kd [4] of the same compound?
A: The Kd was > 30 µM (inactive).

Q: And the Kd [5]?
A: The Kd was > 30 µM (inactive).

Q: What about the Kd [6] of the same compound?
A: Its Kd is > 30 µM (inactive).

Q: What about the Kd [7] of the same compound?
A: Its Kd is > 30 µM (inactive).

Q: What about the Kd [8] of the same compound?
A: The Kd was > 30 µM (inactive).

Q: What about the Kd [9] of the same compound?
A: Its Kd is > 30 µM (inactive).

Q: What about the Kd [10] of the same compound?
A: The Kd was > 30 µM (inactive).

Q: And the Kd [11]?
A: Its Kd is > 30 µM (inactive).

Q: `CCn1c(C(=O)N(C2CC2)C2CC2)cc2c3c(ncn3C)c(Nc3cc(C)n(C)n3)nc21` [BMS-911543] was tested. Which Kd [1] did it give?
A: Its Kd is > 30 µM (inactive).

Q: And the Kd [2]?
A: Its Kd is > 30 µM (inactive).

Q: What about the Kd [3] of the same compound?
A: The Kd was > 30 µM (inactive).

Q: What about the Kd [4] of the same compound?
A: Its Kd is > 30 µM (inactive).

Q: And the Kd [5]?
A: Its Kd is > 30 µM (inactive).

Q: What about the Kd [6] of the same compound?
A: Its Kd is > 30 µM (inactive).

Q: And the Kd [7]?
A: Its Kd is > 30 µM (inactive).

Q: And the Kd [8]?
A: The Kd was > 30 µM (inactive).

Q: What about the Kd [9] of the same compound?
A: Its Kd is > 30 µM (inactive).

Q: What about the Kd [10] of the same compound?
A: Its Kd is > 30 µM (inactive).

Q: And the Kd [11]?
A: Its Kd is > 30 µM (inactive).

Q: For `FC(F)(F)c1ccc(/C=C/c2nc(COc3ccc(CCCCn4ccnn4)cc3)co2)cc1` [MUBRITINIB], which Kd [1] is on record?
A: The Kd was > 30 µM (inactive).

Q: What about the Kd [2] of the same compound?
A: Its Kd is > 30 µM (inactive).

Q: And the Kd [3]?
A: The Kd was > 30 µM (inactive).

Q: What about the Kd [4] of the same compound?
A: The Kd was > 30 µM (inactive).

Q: And the Kd [5]?
A: Its Kd is > 30 µM (inactive).

Q: And the Kd [6]?
A: The Kd was > 30 µM (inactive).

Q: What about the Kd [7] of the same compound?
A: The Kd was > 30 µM (inactive).

Q: What about the Kd [8] of the same compound?
A: Its Kd is > 30 µM (inactive).

Q: What about the Kd [9] of the same compound?
A: The Kd was > 30 µM (inactive).

Q: What about the Kd [10] of the same compound?
A: Its Kd is > 30 µM (inactive).

Q: And the Kd [11]?
A: The Kd was > 30 µM (inactive).
